# According to EP1832586A1, “Thiazole-piperidine derivatives in treatment of diseases of liver and the pancreas” (Oridis Biomed Forschungs- und Entwicklungs GmbH, priority 2006, dated 2007):
# What was measured:
# Format in all cases: cell-based
# HuH7 = test: CellTiter-Glo luminescent cell viability (proliferation) assay, HuH7; conditions: inhibition of HuH7 (human hepatoma) proliferation, 48 hours incubation, 10% FCS
# Experimental: (§1) To practically assess the impact of the thiazole-piperidine derivatives, e.g. derivatives of piperidinyl-thiazole carboxylic acid and/or piperidinyl thiazole carboxamide, in the treatment and/or prevention of diseases according to the invention, the inhibition of cell proliferation is determined by using a luminescent cell viability assay (CellTiter-Glo®; Promega, Madison, USA). The assay is based on the relation that the ATP content is directly proportional to the number of cells present in the culture. The CellTiter-Glo® assay is performed to measure the proliferation rate of human hepatoma (HuH7, PLC/PRF/5, Hep3B, SK-Hep1), human hepatoblastoma (HepG2), human colon carcinoma (CX-2), human breast cancer (SK-Br-3), human ovarian carcinoma (HeLa) and human pancreatic carcinoma (DAN-G) cell lines. […] In particular, the compound according to formula (1) wherein R^1 is 4-isopropoxycarbonylphenyl, R^2 is 3-indolylmethyl, R^3 is hydrogen, R^4 is hydrogen, n is zero, A is a single bond, B is carbonyl, and wherein the residue R^1NR^3CO is connected to the carbon atom bound to nitrogen of the thiazole ring (compound no. XI in Table 1) inhibits proliferation of the human cell lines HepG2 and Hep3B with 10.8 and 3.5 µM, respectively.
# (§2) To determine the inhibition of cell proliferation a luminescent cell viability assay (CellTiter-Glo®; Promega, Madison, USA) is implemented. The assay is based on the relation that the ATP content is directly proportional to the number of cells present in the culture (Technical Bulletin No. 228 "CellTiter-Glo® Luminescent Cell viability Assay", Revised 2/04. Promeg, Madison, USA). The CellTiter-Glo® assay is performed to measure the proliferation rate of human hepatoma (HuH7, PLC/PRF/5, Hep3B, SK-Hep1), human hepatoblastoma (HepG2), human colon carcinoma (CX-2), human breast cancer (SK-Br-3), human ovarian carcinoma (HeLa) and human pancreatic carcinoma (DAN-G) cell lines. 3000 viable cells (viability ≥ 90%) are seeded in opaque-walled 96-well plates and incubated for 24 hours in DMEM, supplemented with 2 mM glutamin. Cell proliferation is stimulated by addition of FCS to a final concentration of 10% (v/v). Simultaneously the compounds (see Table 1 and 2) are added in a concentration range of 0 to 20 µM. Triplicates are measured for each concentration. Cells and compounds (see Table 1 and 2) are incubated for a period of 48 hours in a volume of 140 µl cell culture medium (10% (v/v) FCS, 2 mM Glutamin, DMEM). The compounds according to the invention are dissolved in 60% to 100% (v/v) DMSO at a concentration of 2 mM. The final DMSO concentration under assay conditions never exceeds 1% (v/v). Throughout the assay cells are kept in a humidified incubator (95% rH) at 37°C and 5% CO2.
# (§3) The final cell number is determined after 48 hour of incubation. Therefore 140 µl CellTiter-Glo®Reagent is added in each well. The contents are mixed on an orbital shaker for 2 minutes at room temperature. After subsequent incubation for additional 10 minutes at room temperature the luminescence signal is recorded within 30 min. EC50 values are calculated using the four-parametric Hill equation (Sigma Plot). Control values are: • 1) 10% (v/v) FCS, 2 mM glutamin, DMEM -> maximum cell number • 2) 2 mM glutamin, DMEM -> initial cell number
# HepG2 = test: CellTiter-Glo luminescent cell viability (proliferation) assay, HepG2; conditions: HepG2 (human hepatoblastoma), 48 hours incubation, 10% FCS; read-out: inhibits proliferation
# Experimental: (§4) To practically assess the impact of the thiazole-piperidine derivatives, e.g. derivatives of piperidinyl-thiazole carboxylic acid and/or piperidinyl thiazole carboxamide, in the treatment and/or prevention of diseases according to the invention, the inhibition of cell proliferation is determined by using a luminescent cell viability assay (CellTiter-Glo®; Promega, Madison, USA). The assay is based on the relation that the ATP content is directly proportional to the number of cells present in the culture. The CellTiter-Glo® assay is performed to measure the proliferation rate of human hepatoma (HuH7, PLC/PRF/5, Hep3B, SK-Hep1), human hepatoblastoma (HepG2), human colon carcinoma (CX-2), human breast cancer (SK-Br-3), human ovarian carcinoma (HeLa) and human pancreatic carcinoma (DAN-G) cell lines. […]
# (§5) To determine the inhibition of cell proliferation a luminescent cell viability assay (CellTiter-Glo®; Promega, Madison, USA) is implemented. […] Triplicates are measured for each concentration. […]
# (§6) The final cell number is determined after 48 hour of incubation. […] After subsequent incubation for additional 10 minutes at room temperature the luminescence signal is recorded within 30 min. EC50 values are calculated using the four-parametric Hill equation (Sigma Plot). […]
# Hep3B = test: CellTiter-Glo luminescent cell viability (proliferation) assay, Hep3B; conditions: Hep3B (human hepatoma), 48 hours incubation, 10% FCS; read-out: inhibits proliferation
# Experimental: as §4, §5, §6
# DAN-G = test: CellTiter-Glo luminescent cell viability (proliferation) assay, DAN-G; conditions: DAN-G (human pancreatic carcinoma) proliferation, 48 hours incubation, 10% FCS
# Experimental: as §1, §2, §3
# CX-2 = test: CellTiter-Glo luminescent cell viability (proliferation) assay, CX-2; conditions: CX-2 (human colon carcinoma) proliferation, 48 hours incubation, 10% FCS
# Experimental: as §1, §2, §3
# HeLa = test: CellTiter-Glo luminescent cell viability (proliferation) assay, HeLa; conditions: Hela (human ovarian carcinoma [sic]) proliferation, 48 hours incubation, 10% FCS
# Experimental: as §1, §2, §3
# SK-Br-3 = test: CellTiter-Glo luminescent cell viability (proliferation) assay, SK-Br-3; conditions: Sk-Br-3 (human breast cancer) proliferation, 48 hours incubation, 10% FCS
# Experimental: as §1, §2, §3
"EC50 (HuH7; Homo sapiens, Huh-7, 48 h) [µM]",EC50 (HepG2) [µM],EC50 (Hep3B) [µM],EC50 (HeLa) [µM],EC50 (SK-Br-3) [µM],EC50 (HuH7; Huh-7) [µM],Compound,EC50 (DAN-G) [µM],EC50 (CX-2) [µM]
0.36,10.8,3.5,26.3,10.2,,"CC(C)OC(=O)c1ccc(NC(=O)c2csc(C3CCN(C(=O)CC4C=Nc5ccccc54)CC3)n2)cc1 (stereo not drawn) [XI, 2-[1-{indol-3-yl-methylcarboxyl}piperidine-4-yl]-thiazole-4-yl-caboxylic acid (4-isoproxycarboxy-phenyl) amide]",7.63,22.3
1.64,,,17.2,10.8,,Cc1ccc(NC(=O)c2csc(C3CCN(C(=O)CC4C=Nc5ccccc54)CC3)n2)cc1F (stereo not drawn) [XV],3.81,10.9
0.25,,,8.91,16.6,,O=C(Nc1ccc(F)c(F)c1)c1csc(C2CCN(C(=O)CC3C=Nc4ccccc43)CC2)n1 (stereo not drawn) [XXIV],2.55,10.3
1.15,,,11.1,19.3,,Cc1ccc(S(=O)(=O)N2CCC(c3nc(C(=O)Nc4nnc(C(F)(F)F)s4)cs3)CC2)cc1Cl [XXVI],13.5,20.2
3.23,,,11.6,> 20,,O=C(Nc1cc(-c2cccs2)n[nH]1)c1csc(C2CCN(C(=O)N3CCN(c4ccccn4)CC3)CC2)n1 [XXXIII],13.8,> 20
0.5,,,20.5,10.2,,C=CCSc1ncccc1C(=O)N1CCC(c2nc(C(=O)Nc3cc(-c4ccccc4)nn3C)cs2)CC1 [XXXI],3.58,10.4
5.31,,,10.3,19.7,,COc1ccc(C(=O)N2CCC(c3nc(C(=O)NC4C=C(c5ccccc5)N=N4)cs3)CC2)c(OC)c1OC (stereo not drawn) [XX],7.8,> 20
,,,18,18.9,1.54,O=C(Nc1nccs1)c1csc(C2CCN(C(=O)Cc3c[nH]c4ccccc34)CC2)n1 [X],2.53,> 20
